Test results published in patent US20250228239A1, “MOLECULES HAVING PESTICIDAL UTILITY, AND INTERMEDIATES, COMPOSITIONS, AND PROCESSES, RELATED THERETO” (priority 2024, published 2025).
Where two headings read alike, the source gives them in different places.

Columns and labels:
Assay type in all cases: in vivo
[1] = tested on: Cabbage Looper (Trichoplusia ni, TRIPNI); experiment: Bioassays on Cabbage Looper (CL), 128-well diet tray assay; details: Trichoplusia ni; for mortality at 50 µg/cm2: 168 h, second instar larvae, 50 μg/cm^2 of test molecule on artificial diet, 25° C., five to seven days, average of eight wells, read-out: CL % Control (or Mortality) rating
Procedure, shortened: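 Percent mortality, averaged across eight replicate wells, after second-instar larvae (1–5 per well) fed for five to seven days on diet dosed at 50 μg/cm^2. Compound was applied in acetone-water 90:10 and dried; trays kept vented at 25° C under 14:10 photoperiod.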

[2] = tested on: Yellow Fever Mosquito (Aedes aegypti, AEDSAE); details: for YFM rating: Table ABC / ABC-DP rating; for YFM % Control (or Mortality) rating: about 1 day-old larvae, 4000 ppm master solution diluted with 90:10 water/acetone, 15 μL per well plus 220 μL larval mixture, 3 days
Procedure, shortened: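 Larvae ~1 day old, in liver powder/water; compound from 4000 ppm DMSO stock diluted with water/acetone (90:10); 6 reps; lidded, RT, 3 d; mortality scored per well, rated.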

[3] = tested on: Beet Armyworm (Spodoptera exigua, LAPHEG); experiment: Bioassays on Beet Armyworm (BAW), 128-well diet tray assay; details: Spodoptera exigua; for mortality at 50 µg/cm2: 168 h, second instar larvae, 50 μg/cm^2 of test molecule on artificial diet, 25° C., five to seven days, average of eight wells, read-out: BAW % Control (or Mortality) rating
Procedure, shortened: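 Test molecule was dissolved in 90:10 acetone-water and applied at 50 μg/cm^2 onto artificial diet in eight wells, then dried. Second instar larvae, one to five per well, were added, and trays were kept vented at 25° C. with a 14:10 photoperiod for five to seven days before mortality was recorded.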

[4] = Cabbage Looper, Table ABC / ABC-DP rating, read-out: CL rating
[5] = Beet Armyworm, Table ABC / ABC-DP rating, read-out: BAW rating
[6] = Cabbage Looper, rating class, read-out: CL
[7] = Yellow Fever Mosquito, rating class
[8] = Beet Armyworm, rating class, read-out: BAW
[9] = Table ABC: Biological Results, species CL, read-out: CL
[10] = Table ABC: Biological Results, species YFM
[11] = Table ABC: Biological Results, species BAW, read-out: BAW

Row | SMILES | pest or weed control at 50 µg/cm2 [1, 4] [%] | YFM rating ([2]; Yellow Fever Mosquito) | pest or weed control at 50 µg/cm2 [3, 5] [%] | pest or weed control at 50 µg/cm2 [1, 6] [%] | YFM [2, 7] | pest or weed control at 50 µg/cm2 [3, 8] [%] | other results
1 | O=C(NNc1cccc(C(F)(F)F)c1)c1cc(NC(=O)[C@H]2[C@H](c3cc(Cl)cc(Cl)c3)C2(Cl)Cl)ccc1Cl (relative stereo) [F2572, trans-2,2-Dichloro-N-(4-chloro-3-(2-(3-(trifluoromethyl)phenyl)hydrazine-1-carbonyl)phenyl)-3-(3,5-dichlorophenyl)cyclopropane-1-carboxamide] | 50 to 100 | A (80–100) | 50 to 100 | – | – | – | mortality at 50 µg/cm2 [1]: 50 to 100%; YFM % Control (or Mortality) rating [2]: A (80–100); mortality at 50 µg/cm2 [3]: 50 to 100%
2 | O=C(Nc1ccc(F)c(NC(=O)C(F)(F)C(F)(F)C(F)(F)F)c1F)c1cc(NC(=O)[C@H]2[C@H](c3cc(C(F)(F)F)cc(C(F)(F)F)c3)C2(Cl)Cl)ccc1Cl (relative stereo) [F1825, trans-5-(3-(3,5-bis(Trifluoromethyl)phenyl)-2,2-dichlorocyclopropane-1-carboxamido)-2-chloro-N-(2,4-difluoro-3-(2,2,3,3,4,4,4-heptafluorobutanamido)phenyl)benzamide] | 50 to 100 | A (80–100) | 50 to 100 | – | – | – | –
3 | O=C(Nc1ccc(F)cc1)c1cc(NC(=O)[C@H]2[C@H](c3ccc(F)c(C(F)(F)F)c3)C2(Cl)Cl)c(F)cc1Cl [F1725, 2-Chloro-5-((1R,3R)-2,2-dichloro-3-(4-fluoro-3-(trifluoromethyl)phenyl)cyclopropane-1-carboxamido)-4-fluoro-N-(4-fluorophenyl)benzamide] | – | – | – | 50 to 100 | A (80–100) | 50 to 100 | –
4 | Cc1c(Cl)cc(NC(=O)[C@H]2[C@H](c3ccc(F)c(Cl)c3)C2(Cl)Cl)cc1C(=O)Nc1ccccc1 (relative stereo) [F1188, trans-3-Chloro-5-(2,2-dichloro-3-(3-chloro-4-fluorophenyl)cyclopropane-1-carboxamido)-2-methyl-N-phenylbenzamide] | – | – | – | – | – | – | pest or weed control at 50 µg/cm2 [1, 9]: 50 to 100%; YFM [2, 10]: A (80–100); pest or weed control at 50 µg/cm2 [3, 11]: 50 to 100%
5 | O=C(Nc1ccc(F)c(NC(=O)C2CC2(F)F)c1F)c1cc(NC(=O)[C@H]2[C@H](c3ccc(F)c(C(F)(F)F)c3)C2(Cl)Cl)ccc1Cl (stereo partly drawn) [F1275, 2-Chloro-5-((1R,3R)-2,2-dichloro-3-(4-fluoro-3-(trifluoromethyl)phenyl)cyclopropane-1-carboxamido)-N-(3-(2,2-difluorocyclopropane-1-carboxamido)-2,4-difluorophenyl)benzamide] | – | – | – | – | – | – | pest or weed control at 50 µg/cm2 [1, 9]: 50 to 100%; YFM [2, 10]: A (80–100); pest or weed control at 50 µg/cm2 [3, 11]: 50 to 100%
6 | O=C(NNC(=S)Nc1ccccc1)c1cc(NC(=O)[C@H]2[C@H](c3cc(Cl)cc(Cl)c3)C2(Cl)Cl)ccc1Cl (relative stereo) [F2541, trans-2,2-Dichloro-N-(4-chloro-3-(2-(phenylcarbamothioyl)hydrazine-1-carbonyl)phenyl)-3-(3,5-dichlorophenyl)cyclopropane-1-carboxamide] | 50 to 100 | A (80–100) | 50 to 100 | – | – | – | –
7 | CC(C)(C)OC(=O)N(C(=O)OC(C)(C)C)c1c(F)ccc(NC(=O)c2cc(NC(=O)[C@H]3[C@H](c4ccc(F)c(Br)c4)C3(Cl)Cl)ccc2Cl)c1F [F1776, tert-Butyl N-[3-[[5-[[(1R,3R)-3-(3-bromo-4-fluoro-phenyl)-2,2-dichloro-cyclopropanecarbonyl]amino]-2-chloro-benzoyl]amino]-2,6-difluoro-phenyl]-N-tert-butoxycarbonyl-carbamate] | 50 to 100 | A (80–100) | 50 to 100 | – | – | – | –
8 | CCNC(=O)c1cc(NC(=O)[C@H]2[C@H](c3ccc(F)c(Cl)c3)C2(Cl)Cl)cc(C)c1F (relative stereo) [F2029, trans-5-(2,2-Dichloro-3-(3-chloro-4-fluorophenyl)cyclopropane-1-carboxamido)-N-ethyl-2-fluoro-3-methylbenzamide] | 50 to 100 | A (80–100) | 50 to 100 | – | – | – | –
9 | O=C(Nc1ccccc1)c1cc(NC(=O)[C@H]2[C@H](c3ccc(F)c(C(F)(F)F)c3)C2(Cl)Cl)c(F)cc1Cl [F1723, 2-Chloro-5-((1R,3R)-2,2-dichloro-3-(4-fluoro-3-(trifluoromethyl)phenyl)cyclopropane-1-carboxamido)-4-fluoro-N-phenylbenzamide] | – | – | – | 50 to 100 | A (80–100) | 50 to 100 | –
10 | CC(Br)CC(=O)Nc1c(F)ccc(NC(=O)c2cc(NC(=O)[C@H]3[C@H](c4ccc(F)c(C(F)(F)F)c4)C3(Cl)Cl)ccc2Cl)c1F (stereo partly drawn) [F1853, N-(3-(3-Bromobutanamido)-2,4-difluorophenyl)-2-chloro-5-((1R,3R)-2,2-dichloro-3-(4-fluoro-3-(trifluoromethyl)phenyl)cyclopropane-1-carboxamido)benzamide] | 50 to 100 | A (80–100) | 50 to 100 | – | – | – | –
11 | CC(=O)Nc1cc(F)c(F)cc1NC(=O)c1cc(NC(=O)[C@H]2[C@H](c3cc(Cl)cc(Cl)c3)C2(Cl)Cl)ccc1Cl (relative stereo) [F1634, trans-N-(2-Acetamido-4,5-difluorophenyl)-2-chloro-5-(2,2-dichloro-3-(3,5-dichlorophenyl)cyclopropane-1-carboxamido)benzamide] | – | – | – | 50 to 100 | B (More than 0 – Less than 80) | 50 to 100 | –
12 | Nc1c(F)ccc(NC(=O)c2cc(NC(=O)[C@H]3[C@H](c4ccc(F)cc4)C3(Cl)Cl)ccc2Cl)c1F (relative stereo) [F1592, trans-N-(3-Amino-2,4-difluorophenyl)-2-chloro-5-(2,2-dichloro-3-(4-fluorophenyl)cyclopropane-1-carboxamido)benzamide] | – | – | – | 50 to 100 | A (80–100) | 50 to 100 | –
13 | CC(=O)Nc1cc(NC(=O)c2cc(NC(=O)[C@H]3[C@H](c4cc(Cl)c(Cl)c(Cl)c4)C3(Cl)Cl)ccc2F)c(F)cc1F [F1553, N-(5-Acetamido-2,4-difluorophenyl)-5-((1R,3R)-2,2-dichloro-3-(3,4,5-trichlorophenyl)cyclopropane-1-carboxamido)-2-fluorobenzamide] | – | – | – | 50 to 100 | A (80–100) | 50 to 100 | –
14 | COC(C)C(=O)Nc1c(F)ccc(NC(=O)c2cc(NC(=O)[C@H]3[C@H](c4ccc(F)c(C(F)(F)F)c4)C3(Cl)Cl)ccc2Cl)c1F (stereo partly drawn) [F1712, 2-Chloro-5-((1R,3R)-2,2-dichloro-3-(4-fluoro-3-(trifluoromethyl)phenyl)cyclopropane-1-carboxamido)-N-(2,4-difluoro-3-(2-methoxypropanamido)phenyl)benzamide] | – | – | – | 50 to 100 | A (80–100) | 50 to 100 | –
15 | O=C(Nc1ccc(F)c(NC(=O)C(F)(F)F)c1)c1cc(NC(=O)[C@H]2[C@H](c3ccc(Cl)c(Cl)c3)C2(Cl)Cl)ccc1Cl [F1812, 2-Chloro-5-((1R,3R)-2,2-dichloro-3-(3,4-dichlorophenyl)cyclopropane-1-carboxamido)-N-(4-fluoro-3-(2,2,2-trifluoroacetamido)phenyl)benzamide] | 50 to 100 | B (More than 0 – Less than 80) | 50 to 100 | – | – | – | –
16 | CN(C(=O)c1cc(NC(=O)[C@H]2[C@H](c3ccc(Cl)c(Cl)c3)C2(Cl)Cl)ccc1Cl)c1ccc(F)c(NC(=O)COC(F)(F)F)c1F [F1793, 2-Chloro-5-((1R,3R)-2,2-dichloro-3-(3,4-dichlorophenyl)cyclopropane-1-carboxamido)-N-(2,4-difluoro-3-(2-(trifluoromethoxy)acetamido)phenyl)-N-methylbenzamide] | 50 to 100 | A (80–100) | 50 to 100 | – | – | – | –
17 | Nc1c(F)ccc(NC(=O)c2cc(NC(=O)[C@H]3[C@H](c4ccc(Cl)c(Cl)c4)C3(Cl)Cl)ccc2Cl)c1F [DP2, N-(3-Amino-2,4-difluorophenyl)-2-chloro-5-((1R,3R)-2,2-dichloro-3-(3,4-dichlorophenyl)cyclopropane-1-carboxamido)benzamide] | 50 to 100 | A (80–100) | 50 to 100 | – | – | – | mortality at 50 µg/cm2 [1]: 50 to 100%; YFM % Control (or Mortality) rating [2]: A (80–100); mortality at 50 µg/cm2 [3]: 50 to 100%
18 | C=CCC(=O)Nc1c(F)ccc(NC(=O)c2cc(NC(=O)[C@H]3[C@H](c4cccc(C(F)(F)F)c4)C3(Cl)Cl)ccc2Cl)c1F [F1878, N-(3-(But-3-enamido)-2,4-difluorophenyl)-2-chloro-5-((1R,3R)-2,2-dichloro-3-(3-(trifluoromethyl)phenyl)cyclopropane-1-carboxamido)benzamide] | 50 to 100 | A (80–100) | 50 to 100 | – | – | – | –
